What was measured:
Test in all cases: KinomeScan kinase profiling
Type in all cases: binding
[1] = biological target: T1, ROCK2 (Homo sapiens, UniProt O75116)
T1 construct: host or cells: E. coli host derived from BL21, T7 phage lysate
Outline: (§1)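 Kinases were expressed as T7 phage fusions in a BL21-derived E. coli host and the cleared lysates were used. Ligand beads were blocked with biotin and buffer (1% BSA, 0.05% Tween 20, 1 mM DTT). Compounds came from 40× DMSO stocks, and phage in the eluates was titred by qPCR.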

[2] = biological target: T2, PYK2 (Homo sapiens, UniProt Q14289)
T2 construct: host or cells: E. coli host derived from BL21, T7 phage lysate
Outline: as §1

[3] = biological target: T3, RIOK3 (Homo sapiens, UniProt O14730)
T3 construct: host or cells: E. coli host derived from BL21, T7 phage lysate
Outline: as §1

[4] = biological target: T4, PDGFRA (Homo sapiens, UniProt P16234)
T4 construct: host or cells: E. coli host derived from the BL21 strain, infected with T7 phage
Outline: as §1

[5] = biological target: T5, PIM2 (Homo sapiens, UniProt Q9P1W9)
T5 construct: purchased Ambit Biosciences Corp (KinomeScan); host or cells: E. coli host derived from BL21, infected with T7 phage
Outline: as §1

[6] = biological target: T6, CAMKK1 (Homo sapiens, UniProt Q8N5S9)
T6 construct: host or cells: T7 phage in E. coli (BL21-derived)
Outline: as §1

[7] = biological target: T7, MEK2 (Homo sapiens, UniProt P36507)
T7 construct: host or cells: E. coli derived from BL21, infected with T7 phage
Outline: as §1

[8] = biological target: T8, WEE2 (Homo sapiens, UniProt P0C1S8)
T8 construct: purchased Ambit Biosciences Corp (KinomeScan); host or cells: E. coli host derived from the BL21 strain (T7 phage lysate)
Outline: as §1

[9] = biological target: T9, PRKCH (Homo sapiens, UniProt P24723)
T9 construct: purchased Ambit Biosciences Corp (KinomeScan); host or cells: E. coli host derived from BL21, infected with T7 phage
Outline: as §1

[10] = biological target: T10, EPHB4 (Homo sapiens, UniProt P54760)
T10 construct: host or cells: E. coli host derived from BL21, T7 phage lysate
Outline: as §1

[11] = biological target: T11, ACVR1 (Homo sapiens, UniProt Q04771)
T11 construct: host or cells: E. coli host derived from BL21 (T7 phage lysate)
Outline: as §1

[12] = biological target: T12, CSNK2A2 (Homo sapiens, UniProt P19784)
T12 construct: purchased Ambit Biosciences Corp (KinomeScan); host or cells: T7 phage in E. coli host derived from BL21
Outline: as §1

[13] = biological target: T13, IKK-epsilon (Homo sapiens, UniProt Q14164)
T13 construct: host or cells: T7 phage in E. coli host derived from BL21
Outline: as §1

[14] = biological target: T14, PIK3CA (Homo sapiens, UniProt P42336)
T14 construct: host or cells: E. coli host derived from the BL21 strain, infected with T7 phage
Outline: as §1

[15] = biological target: T15, EGFR (L747-T751del, Sins) (Homo sapiens, UniProt P00533, DEL747-750/T751S)
T15 construct: host or cells: E. coli host derived from BL21, T7 phage lysate
Outline: as §1

[16] = biological target: T16, SRC (Homo sapiens, UniProt P12931)
T16 construct: host or cells: E. coli host derived from the BL21 strain, T7 phage lysate
Outline: as §1

[17] = biological target: T17, PKN2 (Homo sapiens, UniProt Q16513)
T17 construct: purchased Ambit Biosciences Corp (KinomeScan); host or cells: E. coli host derived from BL21, infected with T7 phage
Outline: as §1

[18] = biological target: T18, ERBB2 (Homo sapiens, UniProt P04626)
T18 construct: host or cells: E. coli host derived from BL21, T7 phage lysate
Outline: as §1

[19] = biological target: T19, NEK1 (Homo sapiens, UniProt Q96PY6)
T19 construct: host or cells: T7 phage in E. coli host derived from BL21
Outline: as §1

[20] = biological target: T20, RAF1 (Homo sapiens, UniProt P04049)
T20 construct: host or cells: E. coli host derived from BL21, T7 phage lysate
Outline: as §1

[21] = biological target: T21, ABL1 (F317L) (Homo sapiens, UniProt P00519, F317L)
T21 construct: host or cells: E. coli host derived from BL21 (T7 phage lysate)
Outline: as §1

[22] = biological target: T22, TAOK3 (Homo sapiens, UniProt Q9H2K8)
T22 construct: host or cells: E. coli host derived from the BL21 strain, T7 phage lysate
Outline: as §1

[23] = biological target: T23, MYLK2 (Homo sapiens, UniProt Q9H1R3)
T23 construct: host or cells: T7 phage in E. coli host derived from BL21
Outline: as §1

T22 sequence (Q9H2K8 whole entry): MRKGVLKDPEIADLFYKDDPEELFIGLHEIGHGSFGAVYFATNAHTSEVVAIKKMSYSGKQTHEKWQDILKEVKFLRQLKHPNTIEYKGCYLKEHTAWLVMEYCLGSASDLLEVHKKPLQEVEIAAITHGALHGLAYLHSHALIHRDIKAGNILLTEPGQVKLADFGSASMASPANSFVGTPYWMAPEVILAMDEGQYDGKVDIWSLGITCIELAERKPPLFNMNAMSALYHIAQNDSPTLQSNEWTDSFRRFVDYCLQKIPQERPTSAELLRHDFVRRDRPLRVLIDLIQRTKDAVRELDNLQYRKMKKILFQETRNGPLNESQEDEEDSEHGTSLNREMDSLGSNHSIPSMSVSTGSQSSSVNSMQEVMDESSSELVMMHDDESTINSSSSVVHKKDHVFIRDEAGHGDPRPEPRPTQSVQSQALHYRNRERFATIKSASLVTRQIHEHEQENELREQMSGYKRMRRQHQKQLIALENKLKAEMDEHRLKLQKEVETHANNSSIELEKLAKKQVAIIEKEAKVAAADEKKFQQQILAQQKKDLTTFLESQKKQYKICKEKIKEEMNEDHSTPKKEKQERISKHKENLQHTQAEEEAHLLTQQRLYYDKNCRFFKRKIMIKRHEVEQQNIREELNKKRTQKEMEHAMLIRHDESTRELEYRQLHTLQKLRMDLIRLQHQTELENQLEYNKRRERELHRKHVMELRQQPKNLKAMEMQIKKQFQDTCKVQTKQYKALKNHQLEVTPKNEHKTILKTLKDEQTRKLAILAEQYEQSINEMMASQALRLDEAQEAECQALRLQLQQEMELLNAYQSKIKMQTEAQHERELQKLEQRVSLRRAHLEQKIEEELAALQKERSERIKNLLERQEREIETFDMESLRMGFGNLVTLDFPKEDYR
T16 sequence (P12931 whole entry): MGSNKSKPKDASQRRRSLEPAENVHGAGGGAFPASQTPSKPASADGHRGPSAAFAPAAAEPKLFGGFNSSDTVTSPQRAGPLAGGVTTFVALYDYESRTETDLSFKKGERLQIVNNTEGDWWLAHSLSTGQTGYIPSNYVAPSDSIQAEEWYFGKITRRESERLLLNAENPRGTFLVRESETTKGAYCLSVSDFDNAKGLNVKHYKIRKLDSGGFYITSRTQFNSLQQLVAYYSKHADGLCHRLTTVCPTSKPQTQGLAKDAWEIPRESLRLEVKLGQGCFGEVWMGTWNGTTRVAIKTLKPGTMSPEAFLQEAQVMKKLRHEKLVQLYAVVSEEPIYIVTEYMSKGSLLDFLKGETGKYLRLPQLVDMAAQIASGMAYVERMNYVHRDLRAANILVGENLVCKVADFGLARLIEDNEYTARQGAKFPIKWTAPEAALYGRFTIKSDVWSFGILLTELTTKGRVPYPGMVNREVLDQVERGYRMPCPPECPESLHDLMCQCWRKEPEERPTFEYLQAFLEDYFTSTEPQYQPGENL
T12 sequence (P19784 whole entry): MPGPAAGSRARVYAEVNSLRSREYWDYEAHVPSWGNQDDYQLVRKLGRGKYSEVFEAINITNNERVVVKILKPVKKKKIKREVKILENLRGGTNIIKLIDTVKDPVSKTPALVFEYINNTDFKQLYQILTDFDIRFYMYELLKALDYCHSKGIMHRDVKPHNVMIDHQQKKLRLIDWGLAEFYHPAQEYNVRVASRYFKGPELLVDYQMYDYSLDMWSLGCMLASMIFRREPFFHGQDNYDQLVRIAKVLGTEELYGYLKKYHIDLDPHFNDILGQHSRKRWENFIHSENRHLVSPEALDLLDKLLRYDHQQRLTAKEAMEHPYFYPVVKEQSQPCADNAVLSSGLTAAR
T23 sequence (Q9H1R3 whole entry): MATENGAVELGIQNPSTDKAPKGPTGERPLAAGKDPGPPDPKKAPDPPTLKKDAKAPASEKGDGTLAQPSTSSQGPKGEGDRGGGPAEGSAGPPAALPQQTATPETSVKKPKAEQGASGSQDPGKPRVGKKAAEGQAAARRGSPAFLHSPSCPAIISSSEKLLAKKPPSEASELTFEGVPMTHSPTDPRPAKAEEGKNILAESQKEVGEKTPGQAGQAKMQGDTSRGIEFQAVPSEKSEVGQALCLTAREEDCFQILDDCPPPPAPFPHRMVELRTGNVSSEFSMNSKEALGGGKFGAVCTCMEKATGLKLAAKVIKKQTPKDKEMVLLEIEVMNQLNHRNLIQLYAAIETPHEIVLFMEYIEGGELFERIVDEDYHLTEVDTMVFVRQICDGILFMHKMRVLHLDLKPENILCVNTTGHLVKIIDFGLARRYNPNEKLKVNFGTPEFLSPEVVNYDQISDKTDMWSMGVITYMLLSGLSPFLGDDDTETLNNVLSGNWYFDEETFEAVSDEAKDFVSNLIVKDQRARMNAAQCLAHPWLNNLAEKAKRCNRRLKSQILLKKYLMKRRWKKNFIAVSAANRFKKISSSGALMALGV
T6 sequence (Q8N5S9 whole entry): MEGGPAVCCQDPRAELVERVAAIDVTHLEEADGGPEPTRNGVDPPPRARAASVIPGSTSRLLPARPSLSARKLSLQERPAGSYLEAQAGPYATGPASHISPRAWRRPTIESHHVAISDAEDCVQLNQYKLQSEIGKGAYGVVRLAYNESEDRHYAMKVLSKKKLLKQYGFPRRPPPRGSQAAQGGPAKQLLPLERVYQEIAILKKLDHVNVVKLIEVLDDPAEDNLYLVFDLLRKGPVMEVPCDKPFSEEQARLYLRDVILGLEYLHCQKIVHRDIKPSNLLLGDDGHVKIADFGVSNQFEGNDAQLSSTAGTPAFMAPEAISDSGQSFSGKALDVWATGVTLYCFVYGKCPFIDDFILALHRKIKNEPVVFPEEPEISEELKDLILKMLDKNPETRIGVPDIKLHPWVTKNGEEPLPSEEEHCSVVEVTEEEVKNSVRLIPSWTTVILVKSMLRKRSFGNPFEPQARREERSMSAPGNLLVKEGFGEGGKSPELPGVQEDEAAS
T1 sequence (O75116 whole entry): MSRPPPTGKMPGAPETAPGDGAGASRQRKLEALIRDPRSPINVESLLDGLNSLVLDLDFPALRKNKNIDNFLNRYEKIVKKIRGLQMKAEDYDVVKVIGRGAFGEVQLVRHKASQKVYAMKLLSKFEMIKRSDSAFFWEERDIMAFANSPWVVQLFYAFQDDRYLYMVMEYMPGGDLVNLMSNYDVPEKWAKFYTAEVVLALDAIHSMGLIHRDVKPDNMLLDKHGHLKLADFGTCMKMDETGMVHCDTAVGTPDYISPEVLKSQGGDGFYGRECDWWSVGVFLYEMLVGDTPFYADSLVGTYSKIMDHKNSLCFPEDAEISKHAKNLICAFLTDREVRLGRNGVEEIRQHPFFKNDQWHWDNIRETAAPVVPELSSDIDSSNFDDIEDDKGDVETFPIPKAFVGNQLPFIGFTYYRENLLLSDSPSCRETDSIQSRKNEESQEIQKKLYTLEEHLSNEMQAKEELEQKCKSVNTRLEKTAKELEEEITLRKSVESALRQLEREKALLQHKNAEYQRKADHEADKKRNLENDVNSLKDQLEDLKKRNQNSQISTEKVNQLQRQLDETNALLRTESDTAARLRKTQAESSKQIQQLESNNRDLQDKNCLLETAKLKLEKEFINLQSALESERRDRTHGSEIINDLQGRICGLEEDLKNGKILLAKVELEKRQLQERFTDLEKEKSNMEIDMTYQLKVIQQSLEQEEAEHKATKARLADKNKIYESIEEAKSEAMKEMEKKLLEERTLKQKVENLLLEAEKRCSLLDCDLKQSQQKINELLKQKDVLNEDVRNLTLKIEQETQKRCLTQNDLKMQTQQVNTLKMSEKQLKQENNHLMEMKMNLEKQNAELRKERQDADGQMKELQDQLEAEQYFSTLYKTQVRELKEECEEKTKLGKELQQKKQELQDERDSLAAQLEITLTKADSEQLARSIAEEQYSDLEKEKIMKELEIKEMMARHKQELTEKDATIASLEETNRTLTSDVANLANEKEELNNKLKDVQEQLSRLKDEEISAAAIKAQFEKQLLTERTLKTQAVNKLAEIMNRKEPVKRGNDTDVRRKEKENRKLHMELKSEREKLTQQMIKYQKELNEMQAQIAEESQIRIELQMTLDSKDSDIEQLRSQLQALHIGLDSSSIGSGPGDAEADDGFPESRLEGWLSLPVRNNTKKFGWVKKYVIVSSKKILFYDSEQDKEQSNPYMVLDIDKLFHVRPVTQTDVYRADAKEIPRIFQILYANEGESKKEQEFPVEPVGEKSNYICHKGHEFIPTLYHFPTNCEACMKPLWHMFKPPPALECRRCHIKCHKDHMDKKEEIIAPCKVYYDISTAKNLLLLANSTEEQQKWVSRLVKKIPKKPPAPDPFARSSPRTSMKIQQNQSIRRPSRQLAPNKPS
T11 sequence (Q04771 21-509): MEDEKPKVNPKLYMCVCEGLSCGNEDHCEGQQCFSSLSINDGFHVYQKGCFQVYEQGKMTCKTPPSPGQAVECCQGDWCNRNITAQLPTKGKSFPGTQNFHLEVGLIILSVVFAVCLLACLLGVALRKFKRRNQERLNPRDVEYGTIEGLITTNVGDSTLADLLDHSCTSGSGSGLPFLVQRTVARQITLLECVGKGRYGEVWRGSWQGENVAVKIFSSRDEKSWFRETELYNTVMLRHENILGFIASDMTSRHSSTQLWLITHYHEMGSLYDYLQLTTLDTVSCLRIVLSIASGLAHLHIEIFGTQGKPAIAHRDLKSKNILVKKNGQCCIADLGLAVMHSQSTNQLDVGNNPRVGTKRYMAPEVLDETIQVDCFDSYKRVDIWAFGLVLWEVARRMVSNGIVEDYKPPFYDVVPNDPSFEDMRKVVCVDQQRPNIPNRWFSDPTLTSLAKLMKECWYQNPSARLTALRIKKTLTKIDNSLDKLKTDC

C#Cc1cccc(Nc2ncnc3cc(OC)c(OCCCN4CCOCC4)cc23)c1 [NRC-2694, N-(3-ethylnylphenyl)-7-methoxy-6-[3-(4-morpholinyl)propoxy]-4-quinazolinamine]
% Ctrl @ 10000 nM [1]: 38 % Ctrl | % Ctrl @ 10000 nM [2]: 71 % Ctrl | % Ctrl @ 10000 nM [3]: 37 % Ctrl | % Ctrl @ 10000 nM [4]: 50 % Ctrl | % Ctrl @ 10000 nM [5]: 83 % Ctrl | % Ctrl @ 10000 nM [6]: 71 % Ctrl | % Ctrl @ 10000 nM [7]: 44 % Ctrl | % Ctrl @ 10000 nM [8]: 53 % Ctrl | % Ctrl @ 10000 nM [9]: 83 % Ctrl | % Ctrl @ 10000 nM [10]: 39 % Ctrl | % Ctrl @ 10000 nM [11]: 61 % Ctrl | % Ctrl @ 10000 nM [12]: 52 % Ctrl | % Ctrl @ 10000 nM [13]: 75 % Ctrl | % Ctrl @ 10000 nM [14]: 100 % Ctrl | % Ctrl @ 10000 nM [15]: 0 % Ctrl | % Ctrl @ 10000 nM [16]: 24 % Ctrl | % Ctrl @ 10000 nM [17]: 31 % Ctrl | % Ctrl @ 10000 nM [18]: 31 % Ctrl | % Ctrl @ 10000 nM [19]: 66 % Ctrl | % Ctrl @ 10000 nM [20]: 100 % Ctrl | % Ctrl @ 10000 nM [21]: 33 % Ctrl | % Ctrl @ 10000 nM [22]: 76 % Ctrl | % Ctrl @ 10000 nM [23]: 4.8 % Ctrl

Source: US9050341B2, “Methods of treating drug resistant and other tumors by administering 6,7-dialkoxy quinazoline derivatives” (NATCO PHARMA LIMITED, priority 2009, dated 2015)
